Test results reported in patent US20190282600A1, “COMBINATION THERAPIES TARGETING TERT DEPENDENCY FOR CANCER THERAPY” (The Wistar Institute of Anatomy and Biology, priority 2018, published 2019).

Test system: NRAS mutant melanoma cells
Experiment: Cell death by flow cytometry (PSVue or Annexin V/PI)
Assay type: cell-based, Human
Description: FIGS. 2a to 2c show NRAS^mut melanoma cells (FIG. 2a), BRAF-V600E/NRAS mutant cells derived from melanoma patients resistant to BRAF/MEK inhibitors (FIG. 2b), or non-transformed melanocytes and fibroblasts (FIG. 2c) were treated with 6-thio-dG for 7 days. Cell viability was measured by Alamar Blue assay and calculated relative to DMSO-treated cells. […] Cell death was assessed by PSVUe staining. Percent of apoptotic cells is shown. […] Mean TRF length expressed as kilobase pairs is indicated at the bottom. […] FIG. 2g provides a bar graph showing that DNA damage was assessed by γH2AX staining. Data represent average from three independent experiments ±SEM. *p<0.05; **p<0.01; ***p<0.005 in unpaired Student's t-test. As presented in FIG. 2h, mice bearing established WM3000 or M93-047 NRAS^mut tumors were treated with vehicle control or 6-thio-dG (2.5 mg/kg i.p; q.d). Tumor volume was measured and average tumor volume (n=4) ±SEM was plotted vs. time.
FIGS. 3a to 3g provides graphs showing that telomere dysfunction enhances oxidative stress leading to upregulation of an antioxidant program. […] Mitochondrial superoxide production was measured by MitoSox Red fluorescence (FIGS. 3c, and 3d) and expressed as fluorescence relative to vector or DMSO controls. […] FIG. 3f provides a bar graph showing that SOD2 was silenced using shRNA. Transduced M93-047 cells were treated with DMSO or 1 μM of 6-thio-dG and cell death was assessed by Annexin V/PI straining. As presented in FIG. 3g, M93-047 cells were transduced with a SOD2 lentiviral construct or empty vector control (pLX304). Transduced cells were treated with increasing doses (1, 2.5 and 5 μM) of 6-thio-dG for 7 days and cell death was assessed. Data represent average from three independent experiments ±SEM. *p<0.05; **p<0.01; ***p<0.005 in unpaired Student's t-test.
FIGS. 4a to 4e provides bar graphs showing that induction of telomere and mitochondrial dysfunction triggers cell death in NRAS mutant melanoma. […] Cell death was assessed by Annexin V and PI staining. […] Cells were stained with Annexin V and PI and percent cell death was determined by flow cytometry. […] P values were calculated using unpaired Student's t-test; * p<0.05; *** p<0.005.
As presented in FIG. 16a, SOD2 was silenced using shRNA. Transduced WM3000 cells were treated with DMSO or 1 μM of 6-thio-dG and cell death was assessed by Annexin V/PI straining. […] Transduced cells were treated with increasing doses (1, 2.5 and 5 μM) of 6-thio-dG for 10 days and cell death was assessed. […]
In FIG. 17a, NRAS^mut melanoma cells were treated with 6-thio-dG (1 μM) for 7 days total. […] Percent cell death was determined by flow cytometry following staining of cells with Annexin V and Propidium iodide. […]

Nc1nc2c(ncn2[C@H]2C[C@H](O)[C@@H](CO)O2)c(=S)[nH]1 [6-thio-dG, 6-thio-2′-deoxyguanosine]
cell death (PSVue staining) (1 or 5 μM 6-thio-dG for 7 or 14 days): led to cell death after 7-14 days
apoptosis / cell death (SOD2 overexpression, 1, 2.5 and 5 μM 6-thio-dG for 7 or 10 days, M93-047, WM3000): attenuated the apoptosis-inducing effects
apoptosis / cell death (Annexin V/PI) (SOD2 silenced by shRNA, 1 μM 6-thio-dG, M93-047, WM3000): enhanced the ability of 6-Thio-dG to induce apoptosis
